Tests used:
[1] = In-solution screening: CaP precipitation and aggregation in artificial renal tubular fluid (RTF); conditions: 9 mM phosphate, 8 mM calcium, 4 h, RT
Description: An artificial renal tubular fluid (RTF) with a final composition of 0.05 mM oxalate, 0.005 mM sulphate, 408 mM sodium, 424 mM chloride, 0.26 mM potassium, 4 mM magnesium and 0.2 mM citrate in double distilled water was prepared according to a literature report (Fasano, J. M. et al., Kidney Int. 59, 169-178. DOI: 10.1046/j.1523-1755.2001.00477.x, 2001). The solution was filtered with a 0.45-μm syringe filter. Twenty mM Bis-Tris buffer was added to the reported protocol to ensure pH stability throughout experiments and pH was set to 7.2. The artificial RTF was stored at room temperature for up to four months. Stock solutions of 0.25 M phosphate and 1 M calcium were prepared in double distilled water and were stored separately at −20° C.
Twenty-x final concentration phosphate, 20× final concentration calcium and 10× final concentration compound dilutions were prepared in RTF. Assay mixture consisting of 80% RTF, 10% compound dilution, 5% phosphate dilution and 5% calcium dilution was prepared in Eppendorf tubes as follows. RTF (320 μL) was mixed with 20 μL phosphate dilution (final concentration of 9 mM), 40 μL compound dilution and 20 μL calcium dilution (final concentration of 8 mM). The assay mixture was vortexed after adding each component and 380 μL of the mixture were immediately added to 8-well glass bottom slides and incubated for 4 hat RT. CaP precipitation was assessed using a Leica DM 6000B microscope (Leica Microsystems, Wetzlar, Germany) in brightfield mode. For quantification 3 wells/condition with 3-4 images/well were imaged with a 40× objective. The total area covered with CaP deposits in percentage of the field of view and the mean size of CaP aggregates were determined.
In a first step, the influence of selected IP6 analogues (FIG. 3) on CaP precipitation and growth was assessed in vitro using artificial renal tubular fluid (RTF) (Table 1). In a previous study, the inventors investigated CaP protein particle formation in serum. However, an important difference to cardiovascular calcification lies in the extremely low protein content of the renal tubular fluid vs. the high abundance of proteins in blood, which can stabilize amorphous particles. Two cut-offs were chosen for assessing efficacy. First, complete inhibition was defined as a >90% reduction of detected CaP precipitates compared to the control sample without compound.

[2] = system: RPTEC/TERT 1 human proximal tubule cells; experiment: Imaging assay: CaP adhesion/deposition and cellular changes on RPTEC monolayers treated with 5/7 mM Ca/P; type: cell-based; conditions: 7 mM phosphate, 5 mM calcium, 24 h
Description: RPTEC/TERT 1 human proximal tubule cells (RPTEC) were cultured in T75 tissue culture flasks using ProxUp basal medium mixed with ProxUp supplements at 37° C. and 5% CO2 according to manufacturer's recommendations. Cells were used up to passage 30 and regularly tested for Mycoplasma infections. For experiments, RPTEC were cultured in 24-well plates at a seeding density of 150′000 cells/cm^2. Cell viability assessment and cell counting before seeding was performed using an automated cell counter (BioRad TC 20, Hercules, CA, USA).
For the comparison of selected IP6 analogues, ProxUp basal medium was prepared with the selected inhibitor and added to each well. Then, CaP precipitation was induced by direct addition of first, phosphate and second, calcium. Final concentrations of 7 mM phosphate and 5 mM calcium were used. Cells were incubated for 24 h at 37° C. and 5% CO2. Spiked medium was removed, and cells were washed twice with PBS before staining.
For staining, ProxUp basal medium was mixed with calcein (500 nM final concentration), EthD (6 μM final concentration), CellMask stain ([…]) and Hoechst 33342. Staining mixture was added to RPTEC and cells were incubated for 30 min in the dark at 37° C. and 5% CO2. Staining solution was removed, cells were washed with PBS once and ProxUp basal medium was added. Cells were immediately imaged after staining. Images were obtained by epifluorescence microscopy at 37° C., using a Leica CTR6000 microscope. For quantification 3 wells/condition were prepared and 3 images/well were taken. For preliminary adhesion experiments images were taken with a 10× objective, for the imaging assay 20× objective images were taken.
Multichannel images were saved as individual channel images in 8-bit tiff format. For analysis Hoechst channel images were thresholded using the triangle threshold. Touching nuclei of the binary image were further segmented using the watershed algorithm with the distance transform of the binary image as input and local maxima thereof as seeds.
For EthD channel images, high level of background noise was observed, potentially as a result of fluorescence of the CellMask stain bleeding through. […] A fixed minimum threshold was set at 60. Watershed segmentation similar to the Hoechst channel was performed to segment touching objects. For the calcein channel images adaptive thresholding by triangle thresholding achieved good detection of CaP deposits, which was validated by visual comparison to brightfield channel images. For compound experiments, an additional upper threshold was set to the minimum threshold of the pos.ctrl images for the respective experiment. Thereby an overly insensitive threshold in images with a high amount of CaP deposition was circumvented. The sum of foreground pixels of the binary image was used to calculate the total area of CaP deposits. The skimage label algorithm was used to label touching foreground regions.
To segment images to single cells the CellMask channel image was first binarized by adaptive thresholding, using a blocksize of 35, followed by median filtering. Binary erosion was performed to shrink the outlines. A version of watershed algorithm was used to segment the whole image into single cells. To this end, the distance transform of the binary erosion image was used as input image and seeds were set to the local maxima of the Hoechst channel image. While this protocol allowed for an approximation of single cell morphology, further improvements of both analytical and experimental staining procedure would be necessary to achieve more accurate results.
Additionally, texture features of calcein and CellMask channel images were extracted. Grey level co-occurrence matrices were calculated using one set offset of 5 pixel and an angle of 90°. Here, the use of larger offsets could improve the detection of changes in large-scale features, e.g. CaP clustering sites. […]

Compound | concentration at which CaP precipitation was promoted [1] [µM] | effect on CaP precipitation / crystallization (in words) [1] | concentration achieving complete inhibition of CaP adhesion [2] [µM] | other results
O=P(O)(O)O[C@H]1[C@H](OP(=O)(O)O)[C@@H](OP(=O)(O)O)[C@H](OP(=O)(O)O)[C@@H](OP(=O)(O)O)[C@H]1OP(=O)(O)O [IP6, Phytic acid, reference compound] | 10 |  |  | 
cyclohexane hexacarboxylic acid [IC6, reference compound] |  | weak inhibitory properties |  | 
O=S(=O)(O)OC1C(OS(=O)(=O)O)C(OS(=O)(=O)O)C(OS(=O)(=O)O)C(OS(=O)(=O)O)C1OS(=O)(=O)O (stereo not drawn) [IS6, myo-inositol hexasulfate, reference compound] |  | weak inhibitory properties |  | 
O=P(O)(O)OC1[C@@H](OP(=O)(O)O)[C@H](OP(=O)(O)O)C(O)[C@H](OP(=O)(O)O)[C@H]1OP(=O)(O)O (stereo partly drawn) [IP5, myo-inositol pentakisphosphate, reference compound] | 30 |  |  | 
COCCOCCO[C@@H]1[C@@H](OP(=O)(O)O)[C@H](OP(=O)(O)O)[C@@H](OP(=O)(O)O)[C@@H](OP(=O)(O)O)[C@H]1OP(=O)(O)O [OEG2-IP5] |  |  | 50 | concentration for complete inhibition of CaP precipitation (>90% reduction of detected CaP precipitates vs control) [1]: 30 µM; concentration for inhibition of CaP aggregation (>50% reduction of mean size of aggregates vs control) [1]: 1 µM
COCCOCCOCCOCCOCCOCCOCCOCCOCCOCCOCCO[C@@H]1[C@@H](OP(=O)(O)O)[C@H](OP(=O)(O)O)[C@@H](OP(=O)(O)O)[C@@H](OP(=O)(O)O)[C@H]1OP(=O)(O)O [OEG11-IP5] |  |  | 50 | aggregation inhibitory concentration (>50% reduction of mean size of aggregates vs control) [1]: 300 nM
